Experimental data published in US12653809B2, “Urea, amide, and substituted heteroaryl compounds for CBL-B inhibition” (Nurix Therapeutics, Inc., priority 2019, dated 2026).

molecular target: T1, Cbl-b (truncated variant, UniProt number Q13191) (Homo sapiens, UniProt Q13191); test: Cbl-b activity assay (TR-FRET, interaction of Cbl-b with UbcH5B-Ub); type: biochemical; conditions: high conditions: 100 mM NaCl, 60 nM Src kinase; 12 nM Cbl-b; read-out: Cbl-b activity IC50
T1 construct: made in house
T1 sequence (Q13191 36-427): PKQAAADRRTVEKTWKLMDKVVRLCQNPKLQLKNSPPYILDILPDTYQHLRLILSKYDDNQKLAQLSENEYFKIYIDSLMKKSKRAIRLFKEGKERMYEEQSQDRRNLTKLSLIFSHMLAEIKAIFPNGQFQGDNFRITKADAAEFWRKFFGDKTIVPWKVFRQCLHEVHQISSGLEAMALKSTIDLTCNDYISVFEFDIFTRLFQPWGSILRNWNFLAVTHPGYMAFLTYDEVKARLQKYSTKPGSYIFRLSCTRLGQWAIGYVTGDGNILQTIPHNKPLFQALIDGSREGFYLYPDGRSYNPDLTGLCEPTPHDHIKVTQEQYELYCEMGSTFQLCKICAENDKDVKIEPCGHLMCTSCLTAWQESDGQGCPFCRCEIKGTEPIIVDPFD

IC50 | SMILES
≥ 5 µM | C[C@H](Sc1nncn1C)c1cccc(NC(=O)N2CC(S(C)(=O)=O)C2)c1 [Example 134, 3-methanesulfonyl-N-[3-[(1S)-1-[(4-methyl-4H-1,2,4-triazol-3-yl)sulfanyl]ethyl]phenyl]azetidine-1-carboxamide]
≥ 5 µM | C[C@H](Sc1nncn1C)c1cccc(NC(=O)N2CCO[C@H]([C@H]3CCCO3)C2)c1 [Example 135, (S)—N-(3-((S)-1-((4-methyl-4H-1,2,4-triazol-3-yl)thio)ethyl)phenyl)-2-((R)-tetrahydrofuran-2-yl)morpholine-4-carboxamide]
≥ 5 µM | C[C@H](Sc1nncn1C)c1cccc(NC(=O)N2CC3(CCCO3)C2)c1 [Example 138, N-[3-[(1S)-1-[(4-methyl-4H-1,2,4-triazol-3-yl)sulfanyl]ethyl]phenyl]-5-oxa-2-azaspiro[3.4]octane-2-carboxamide]
≥ 5 µM | C[C@H](Sc1nncn1C)c1cccc(NC(=O)N2CCC3(CNC(=O)C3)C2)c1 (stereo partly drawn) [Example 139, N-(3-((S)-1-((4-methyl-4H-1,2,4-triazol-3-yl)thio)ethyl)phenyl)-8-oxo-2,7-diazaspiro[4.4]nonane-2-carboxamide]
≥ 5 µM | C[C@H](Sc1nncn1C)c1cccc(NC(=O)N2CC(C(=O)N3CCC(O)CC3)C2)c1 [Example 140, (S)-3-(4-hydroxypiperidine-1-carbonyl)-N-(3-(1-((4-methyl-4H-1,2,4-triazol-3-yl)thio)ethyl)phenyl)azetidine-1-carboxamide]
≥ 5 µM | C[C@H](Sc1nncn1C)c1cccc(NC(=O)N2CC3(CCOC(=O)N3)C2)c1 [Example 141, (S)—N-(3-(1-((4-methyl-4H-1,2,4-triazol-3-yl)thio)ethyl)phenyl)-6-oxo-7-oxa-2,5-diazaspiro[3.5]nonane-2-carboxamide]
≥ 5 µM | C[C@H](Sc1nncn1C)c1cccc(NC(=O)N2CCC2c2ccccc2)c1 (stereo partly drawn) [Example 142, N-(3-((S)-1-((4-methyl-4H-1,2,4-triazol-3-yl)thio)ethyl)phenyl)-2-phenylazetidine-1-carboxamide]
≥ 5 µM | CC(CO)N(C)C(=O)Nc1cccc([C@H](C)Sc2nncn2C)c1 (stereo partly drawn) [Example 143, 1-(1-hydroxypropan-2-yl)-1-methyl-3-(3-((S)-1-((4-methyl-4H-1,2,4-triazol-3-yl)thio)ethyl)phenyl)urea]
≥ 5 µM | CNS(=O)(=O)c1cc(NC(=O)Nc2cccc([C@H](C)Sc3nncn3C)c2)ccc1C [Example 144, (S)—N,2-dimethyl-5-(3-(3-(1-((4-methyl-4H-1,2,4-triazol-3-yl)thio)ethyl)phenyl)ureido)benzenesulfonamide]
≥ 5 µM | C[C@H](Sc1nncn1C)c1cccc(NC(=O)Nc2ccc(N3CCOCC3=O)cc2)c1 [Example 147, (S)-1-(3-(1-(4-methyl-4H-1,2,4-triazol-3-ylthio)ethyl)phenyl)-3-(4-(3-oxomorpholino)phenyl)urea]
≥ 5 µM | COc1cc(N2CCOCC2)ccc1NC(=O)Nc1cccc([C@H](C)Sc2nncn2C)c1 [Example 148, (S)-1-(2-methoxy-4-morpholinophenyl)-3-(3-(1-((4-methyl-4H-1,2,4-triazol-3-yl)thio)ethyl)phenyl)urea]
≥ 5 µM | C[C@H](Sc1nncn1C)c1cccc(NC(=O)N2CCCC2)c1 [Example 151, N-[3-[(1S)-1-[(4-methyl-4H-1,2,4-triazol-3-yl)sulfanyl]ethyl]phenyl]pyrrolidine-1-carboxamide]
≥ 5 µM | C[C@H](Sc1nncn1C)c1cccc(NC(=O)N2CC(C(=O)N3CCC(O)C3)C2)c1 (stereo partly drawn) [Example 153, 3-(3-hydroxypyrrolidine-1-carbonyl)-N-(3-((S)-1-((4-methyl-4H-1,2,4-triazol-3-yl)thio)ethyl)phenyl)azetidine-1-carboxamide]
≥ 5 µM | C[C@H](Sc1nncn1C)c1cccc(NC(=O)N2CCOC(c3ncon3)C2)c1 (stereo partly drawn) [Example 154, N-(3-((S)-1-((4-methyl-4H-1,2,4-triazol-3-yl)thio)ethyl)phenyl)-2-(1,2,4-oxadiazol-3-yl)morpholine-4-carboxamide]
≥ 5 µM | C[C@H](Sc1nncn1C)c1cccc(NC(=O)N2CCC(c3ccccn3)C2)c1 (stereo partly drawn) [Example 157, N-(3-((S)-1-((4-methyl-4H-1,2,4-triazol-3-yl)thio)ethyl)phenyl)-3-(pyridin-2-yl)pyrrolidine-1-carboxamide]

More lines, now with the values behind:

SMILES | IC50
C[C@H](Sc1nncn1C)c1cccc(NC(=O)N2CCO[C@@H]([C@H]3CCCO3)C2)c1 [Example 136, (R)—N-(3-((S)-1-((4-methyl-4H-1,2,4-triazol-3-yl)thio)ethyl)phenyl)-2-((R)-tetrahydrofuran-2-yl)morpholine-4-carboxamide] | ≥ 5 µM
CCN1CCc2nc(NC(=O)Nc3cccc([C@H](C)Sc4nncn4C)c3)sc2C1 [Example 137, (S)-1-(5-ethyl-4,5,6,7-tetrahydrothiazolo[5,4-c]pyridin-2-yl)-3-(3-(1-((4-methyl-4H-1,2,4-triazol-3-yl)thio)ethyl)phenyl)urea] | ≥ 5 µM
C[C@H](Sc1nncn1C)c1cccc(NC(=O)N2Cc3nccnc3C2)c1 [Example 145, (S)—N-(3-(1-((4-methyl-4H-1,2,4-triazol-3-yl)thio)ethyl)phenyl)-5,7-dihydro-6H-pyrrolo[3,4-b]pyrazine-6-carboxamide] | ≥ 5 µM
C[C@H](Sc1nncn1C)c1cccc(NC(=O)N2CCOCC2CO)c1 (stereo partly drawn) [Example 146, 3-(hydroxymethyl)-N-(3-((S)-1-((4-methyl-4H-1,2,4-triazol-3-yl)thio)ethyl)phenyl)morpholine-4-carboxamide] | ≥ 5 µM
C[C@H](Sc1nncn1C)c1cccc(NC(=O)N2CCN(c3cccnc3)CC2)c1 [Example 149, (S)—N-(3-(1-((4-methyl-4H-1,2,4-triazol-3-yl)thio)ethyl)phenyl)-4-(pyridin-3-yl)piperazine-1-carboxamide] | ≥ 5 µM
C[C@H](Sc1nncn1C)c1cccc(NC(=O)Nc2ccc(CC(=O)N(C)C)cc2)c1 [Example 150, (S)—N,N-dimethyl-2-(4-(3-(3-(1-((4-methyl-4H-1,2,4-triazol-3-yl)thio)ethyl)phenyl)ureido)phenyl)acetamide] | ≥ 5 µM
CCn1cc(CN(C)C(=O)Nc2cccc([C@H](C)Sc3nncn3C)c2)cn1 [Example 152, (S)-1-((1-ethyl-1H-pyrazol-4-yl)methyl)-1-methyl-3-(3-(1-((4-methyl-4H-1,2,4-triazol-3-yl)thio)ethyl)phenyl)urea] | ≥ 5 µM
C[C@H](Sc1nncn1C)c1cccc(NC(=O)N2CCN(C)CC2)c1 [Example 155, (S)-4-methyl-N-(3-(1-((4-methyl-4H-1,2,4-triazol-3-yl)thio)ethyl)phenyl)piperazine-1-carboxamide] | ≥ 5 µM
C[C@H](Sc1nncn1C)c1cccc(NC(=O)N2CCN(C3CC3)C(=O)C2)c1 [Example 156, (S)-4-cyclopropyl-N-(3-(1-((4-methyl-4H-1,2,4-triazol-3-yl)thio)ethyl)phenyl)-3-oxopiperazine-1-carboxamide] | ≥ 5 µM
C[C@H](Sc1nncn1C)c1cccc(NC(=O)Nc2ccc(S(=O)(=O)N(C)C)cc2)c1 [Example 158, (S)—N,N-dimethyl-4-(3-(3-(1-((4-methyl-4H-1,2,4-triazol-3-yl)thio)ethyl)phenyl)ureido)benzenesulfonamide] | ≥ 5 µM
